≈ marks a conversion by molar mass, not a printed value.
Key:
Staphylococcus sp. = assay: In vitro antibacterial evaluation: minimum inhibitory concentration (MIC), broth dilution method; assay type: cell-based; settings: for MIC Staphylococcus aureus (ATCC 29213): strain ATCC 29213; for MIC Staphylococcus aureus (GC 3051): strain GC 3051; for MIC Staphylococcus aureus (GC 3053): strain GC 3053; for MIC Staphylococcus aureus (GC 4541): strain GC 4541; for MIC Staphylococcus aureus (GC 4542): strain GC 4542; for MIC Staphylococcus aureus (GC 4545): strain GC 4545; for MIC Staphylococcus haemolyticus (GC 4546): strain GC 4546; for MIC Coagulase Negative Staphylococcus (GC 4547): strain GC 4547; for MIC Coagulase Negative Staphylococcus (GC 4548): strain GC 4548; for MIC Coagulase Negative Staphylococcus (GC 4549): strain GC 4549; for MIC Coagulase Negative Staphylococcus (GC 4551): strain GC 4551; for MIC Coagulase Negative Staphylococcus (GC 6257): strain GC 6257
How it was run: (§1)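 An MIC is reported for each organism as the least concentration giving inhibition, using broth dilution over 64-0.06 μg/mL with a 5×10^5 CFU/mL inoculum.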

Streptococcus sp. = assay: as above; assay type: cell-based; settings: broth dilution, 18 hours at 35° C.
How it was run: as §1

Escherichia coli = assay: as above; assay type: cell-based; settings: 5×10^5 CFU/mL, 18 hours at 35° C.
How it was run: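 First, organisms are seeded at 5×10^5 CFU/mL into Muller-Hinton II […]. Next, antibiotic is applied across 64-0.06 μg/mL by broth dilution (NCCLS M7-A2). Finally, the lowest inhibitory concentration is recorded as MIC.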

Enterococcus sp. = assay: as above; assay type: cell-based; settings: broth dilution, 18 hours at 35° C.
How it was run: as §1

[1] = assay type: in vivo; settings: mice, 20 mg/kg intravenously daily for 9 days, serum on day 10
Description: 20-day-old CD-1 mice were divided into a vehicle control group (5 mice) and a treatment group (5 mice). Samples of glycopeptide antibiotics were administered at 20 mg/kg intravenously daily for 9 days. Animals were necropsied on day 10 Sera were analyzed for BUN (blood urea nitrogen), creatinine, AST (aspartic aminotransferase), and ALT (alanine aminotransferase) by routine, standard, automated methods using an Hitachi 747 chemistry analyzer.

[2] = system: Enterococcus faecalis (GC 6189), vancomycin resistant strain; assay: Acute lethal infection in mice (ED50); assay type: in vivo; settings: female CD-1 mice, intraperitoneal challenge, intravenous dose 30 min. after infection, 7 day survival ratios
How it was run: (§2)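 Median effective dose is calculated from 7-day survival ratios pooled across three separate tests. Mice (female CD-1) receive an intraperitoneal bacterial challenge in broth or hog gastric mucin, then intravenous drug 30 min later, five animals per dose level.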

[3] = system: Staphylococcus aureus-SMITH (GC 4543); assay: Acute lethal infection in mice (ED50); assay type: in vivo; settings: female CD-1 mice, intraperitoneal challenge, intravenous dose 30 min. after infection, 7 day survival ratios
How it was run: as §2

[4] = system: Streptococcus pneumoniae (GC 1894), penicillin resistant strain; assay: Acute lethal infection in mice (ED50); assay type: in vivo; settings: female CD-1 mice, intraperitoneal challenge, intravenous dose 30 min. after infection, 7 day survival ratios
How it was run: as §2

[5] = Anatomic pathology (heart and kidney histopathology) in mice; assay type: in vivo, CD-1 mice; settings: 20 mg/kg intravenously daily for 9 days, microscopic histopathology on day 10
How it was run: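 Juvenile CD-1 mice (20 days old; 5 vehicle, 5 treated) received glycopeptide antibiotic 20 mg/kg i.v. daily for 9 days. Necropsied tissues formalin-fixed, paraffin-embedded, H&E stained and examined microscopically; findings graded slight to severe versus controls.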

[6] = broth dilution, 18 hours at 35° C.

Structure (SMILES): CC(c1ccccc1)C1NC(=O)CNC(=O)C(CO)NC(=O)C(C(O)C2CNC(=N)N2C2OC(CO)C(O)C(O)C2O)NC(=O)C(C(O)C2CNC(=N)N2)NC(=O)C(Cc2ccc(OC3OC(CO)C(OC4OC5COC6(OC5C(O)C4O)C4CC5CC(C4)CC6C5)C(O)C3O)cc2)NC1=O (stereo not drawn) [Example 105, Cyclo[glycyl-β-methylphenylalanyl-O-[4-O-[4,6-O-(2-adamantylidene)hexopyranosyl]hexopyranosyl]tyrosyl-3-(2-iminoimidazolidin-4-yl)seryl-3-(3-hexopyranosyl-2-iminoimidazoliclin-4-yl)serylseryl]]
- MIC Staphylococcus aureus (ATCC 29213) (Staphylococcus sp.): <0.5 to 1 µg/mL
- MIC Staphylococcus aureus (ATCC 29213) (Staphylococcus sp.; [6]): <0.5 to 1 µg/mL
- MIC Staphylococcus aureus (GC 3051) (Staphylococcus sp.): 0.5 to 1 µg/mL
- MIC Staphylococcus aureus (GC 3051) (Staphylococcus sp.; [6]): 0.5 to 1 µg/mL
- MIC Staphylococcus aureus (GC 3053) (Staphylococcus sp.): 1 to 2 µg/mL
- MIC Staphylococcus aureus (GC 3053) (Staphylococcus sp.; [6]): 1 to 2 µg/mL
- MIC Staphylococcus aureus (GC 4541) (Staphylococcus sp.): <0.5 to 1 µg/mL
- MIC Staphylococcus aureus (GC 4541) (Staphylococcus sp.; [6]): <0.5 to 1 µg/mL
- MIC Staphylococcus aureus (GC 4542) (Staphylococcus sp.): 0.5 to 1 µg/mL
- MIC Staphylococcus aureus (GC 4542) (Staphylococcus sp.; [6]): 0.5 to 1 µg/mL
- MIC Staphylococcus aureus (GC 4545) (Staphylococcus sp.): <0.5 to 1 µg/mL
- MIC Staphylococcus aureus (GC 4545) (Staphylococcus sp.; [6]): <0.5 to 1 µg/mL
- MIC Staphylococcus haemolyticus (GC 4546) (Staphylococcus sp.): <0.5 to 1 µg/mL
- MIC Staphylococcus haemolyticus (GC 4546) (Staphylococcus sp.; [6]): <0.5 to 1 µg/mL
- MIC Coagulase Negative Staphylococcus (GC 4547) (Staphylococcus sp.): 0.5 to 1 µg/mL
- MIC Coagulase Negative Staphylococcus (GC 4547) (Staphylococcus sp.; [6]): 0.5 to 1 µg/mL
- MIC Coagulase Negative Staphylococcus (GC 4548) (Staphylococcus sp.): <0.5 to 1 µg/mL
- MIC Coagulase Negative Staphylococcus (GC 4548) (Staphylococcus sp.; [6]): <0.5 to 1 µg/mL
- MIC Coagulase Negative Staphylococcus (GC 4549) (Staphylococcus sp.): 0.5 to 1 µg/mL
- MIC Coagulase Negative Staphylococcus (GC 4549) (Staphylococcus sp.; [6]): 0.5 to 1 µg/mL
- MIC Coagulase Negative Staphylococcus (GC 4551) (Staphylococcus sp.): <0.5 to 1 µg/mL
- MIC Coagulase Negative Staphylococcus (GC 4551) (Staphylococcus sp.; [6]): <0.5 to 1 µg/mL
- MIC Coagulase Negative Staphylococcus (GC 6257) (Staphylococcus sp.): 0.5 to 1 µg/mL
- MIC Coagulase Negative Staphylococcus (GC 6257) (Staphylococcus sp.; [6]): 0.5 to 1 µg/mL
- MIC Streptococcus agalactiae (GC 4564) (Streptococcus sp.; Streptococcus agalactiae (GC 4564)): <0.06 to 0.25 µg/mL
- MIC Streptococcus pneumoniae (ATCC 6301) (Streptococcus sp.; Streptococcus pneumoniae (ATCC 6301)): <0.06 µg/mL
- MIC Streptococcus pneumoniae (GC 1894) (Streptococcus sp.; Streptococcus pneumoniae (GC 1894)): <0.06 µg/mL
- MIC Streptococcus pneumoniae (GC 4565) (Streptococcus sp.; Streptococcus pneumoniae (GC 4565)): <0.06 µg/mL
- MIC Streptococcus pyogenes (GC 4563) (Streptococcus sp.; Streptococcus pyogenes (GC 4563)): <0.06 to 0.12 µg/mL
- MIC Streptococcus agalactiae (GC 4564) (Streptococcus sp.; 5×10^5 CFU/mL): <0.06 to 0.25 µg/mL
- MIC Streptococcus pneumoniae (GC 1894) (Streptococcus sp.; 5×10^5 CFU/mL): <0.06 µg/mL
- MIC Streptococcus pneumoniae (GC 4565) (Streptococcus sp.; 5×10^5 CFU/mL): <0.06 µg/mL
- MIC Streptococcus pneumonine (ATCC 6301) (Streptococcus sp.; 5×10^5 CFU/mL): <0.06 µg/mL
- MIC Streptococcus pyogenes (GC 4563) (Streptococcus sp.; 5×10^5 CFU/mL): <0.06 to 0.12 µg/mL
- MIC Escherichia coli (ATCC 25922) (Escherichia coli): 16 to 32 µg/mL
- MIC Escherichia coli (GC 4559) (Escherichia coli): 32 µg/mL (≈ 22.4 µM)
- MIC Escherichia coli (GC 4560) (Escherichia coli): 0.5 to 2 µg/mL
- MIC Enterococcus avium (GC 4558) (Enterococcus sp.; Enterococcus avium (GC 4558)): 1 to 2 µg/mL
- MIC Enterococcus faecalis (ATCC 29212) (Enterococcus sp.; Enterococcus faecalis (ATCC 29212)): 1 to 2 µg/mL
- MIC Enterococcus faecalis (GC 2242) (Enterococcus sp.; Enterococcus faecalis (GC 2242)): 0.5 to 2 µg/mL
- MIC Enterococcus faecalis (GC 2691) (Enterococcus sp.; Enterococcus faecalis (GC 2691)): 1 to 2 µg/mL
- MIC Enterococcus faecalis (GC 3059) (Enterococcus sp.; Enterococcus faecalis (GC 3059)): 1 to 2 µg/mL
- MIC Enterococcus faecalis (GC 4552) (Enterococcus sp.; Enterococcus faecalis (GC 4552)): 1 to 2 µg/mL
- MIC Enterococcus faecalis (GC 4553) (Enterococcus sp.; Enterococcus faecalis (GC 4553)): 1 to 2 µg/mL
- MIC Enterococcus faecalis (GC 4554) (Enterococcus sp.; Enterococcus faecalis (GC 4554)): 1 to 2 µg/mL
- MIC Enterococcus faecalis (GC 6189) (Enterococcus sp.; Enterococcus faecalis (GC 6189)): 1 to 2 µg/mL
- MIC Enterococcus faecium (GC 2243) (Enterococcus sp.; Enterococcus faecium (GC 2243)): 1 to 2 µg/mL
- MIC Enterococcus faecium (GC 4556) (Enterococcus sp.; Enterococcus faecium (GC 4556)): 0.5 to 2 µg/mL
- MIC Enterococcus faecium (GC 4557) (Enterococcus sp.; Enterococcus faecium (GC 4557)): 1 to 2 µg/mL
- MIC Enterococccus avium (GC 4558) (Enterococcus sp.; 5×10^5 CFU/mL): 1 to 2 µg/mL
- MIC Enterococccus faecalis (ATCC 29212) (Enterococcus sp.; 5×10^5 CFU/mL): 1 to 2 µg/mL
- MIC Enterococccus faecalis (GC 2691) (Enterococcus sp.; 5×10^5 CFU/mL): 1 to 2 µg/mL
- MIC Enterococccus faecalis (GC 3059) (Enterococcus sp.; 5×10^5 CFU/mL): 1 to 2 µg/mL
- MIC Enterococccus faecalis (GC 4552) (Enterococcus sp.; 5×10^5 CFU/mL): 1 to 2 µg/mL
- MIC Enterococccus faecalis (GC 4553) (Enterococcus sp.; 5×10^5 CFU/mL): 1 to 2 µg/mL
- MIC Enterococccus faecalis (GC 4554) (Enterococcus sp.; 5×10^5 CFU/mL): 1 to 2 µg/mL
- MIC Enterococccus faecalis (GC 6189) (Enterococcus sp.; 5×10^5 CFU/mL): 1 to 2 µg/mL
- MIC Enterococccus faecium (GC 2243) (Enterococcus sp.; 5×10^5 CFU/mL): 1 to 2 µg/mL
- MIC Enterococccus faecium (GC 4556) (Enterococcus sp.; 5×10^5 CFU/mL): 0.5 to 2 µg/mL
- MIC Enterococccus faecium (GC 4557) (Enterococcus sp.; 5×10^5 CFU/mL): 1 to 2 µg/mL
- MIC Enterococcus faecalis (GC 2242) (Enterococcus sp.; 5×10^5 CFU/mL): 0.5 to 2 µg/mL
- Clinical Chemistry (Day 10) % of Control, ALT [1]: +480%
- Clinical Chemistry (Day 10) % of Control, AST [1]: +205%
- Clinical Chemistry (Day 10) % of Control, BUN [1]: +35%
- median effective dose (ED50), Enterococcus faecalis (GC 6189) [2]: 1.8-1.96
- median effective dose (ED50), Staphylococcus aureus-SMITH (GC 4543) [3]: 0.04-0.08
- median effective dose (ED50), Streptococcus pneumoniae (GC 1894) [4]: 0.04 mg/kg
- Anatomical Pathology (Day 10), Heart [5]: +++
- Anatomical Pathology (Day 10), Kidney [5]: +++

From patent US8247211B2, “Glycopeptide antibiotics” (American Cyanamid Company, priority 2001, dated 2012)
